PMC6142817, “New Urea Derivatives Are Effective Anti-senescence Compounds Acting Most Likely via a Cytokinin-Independent Mechanism” (Frontiers in Plant Science, 2018)

Legend:
[1] = test system: young wheat plants under salt stress; test: Salt stress experiment; format: in vivo, Triticum a. cv. Hereward; conditions: 100 nM, 75 mM NaCl
Procedure: A plastic container was filled with 45 g of perlite and 200 mL of Hoagland's solution (control) or with the addition of ASES to a final concentration of 100 nM. Sterilized seeds of Triticum a. cv. Hereward (6 g) were sown on the surface. Both treatments were done in two repetitions. The plants were left to grow in optimal conditions (22°C, 16/8, light/dark, 130 μM m^−2 s^−1, humidity 60%) for 7 days. During this period, most of the water evaporated and the containers were adjusted to the same weight by the addition of fresh distilled water. After this, all the containers contained 50 g (mL) of water. Then 100 mM NaCl solution was added in the final volume of 150 mL. Final concentration of the salt was 75 mM. The plants were then left to grow, analyzed visually and photographed at certain time-points.

[2] = target: T1, Arabidopsis thaliana cytokinin oxidase/dehydrogenase 2 (AtCKX2) (Arabidopsis thaliana, UniProt Q9FUJ3); test: AtCKX2 inhibition assay (PMS/MTT); format: biochemical; conditions: PMS/MTT kinetic assay
T1 construct: made in house; host or cells: Saccharomyces cerevisiae strain 23344c ura-, plasmid pYES2-AtCKX2; cell-free growth medium used directly
T1 sequence (Q9FUJ3 23-501): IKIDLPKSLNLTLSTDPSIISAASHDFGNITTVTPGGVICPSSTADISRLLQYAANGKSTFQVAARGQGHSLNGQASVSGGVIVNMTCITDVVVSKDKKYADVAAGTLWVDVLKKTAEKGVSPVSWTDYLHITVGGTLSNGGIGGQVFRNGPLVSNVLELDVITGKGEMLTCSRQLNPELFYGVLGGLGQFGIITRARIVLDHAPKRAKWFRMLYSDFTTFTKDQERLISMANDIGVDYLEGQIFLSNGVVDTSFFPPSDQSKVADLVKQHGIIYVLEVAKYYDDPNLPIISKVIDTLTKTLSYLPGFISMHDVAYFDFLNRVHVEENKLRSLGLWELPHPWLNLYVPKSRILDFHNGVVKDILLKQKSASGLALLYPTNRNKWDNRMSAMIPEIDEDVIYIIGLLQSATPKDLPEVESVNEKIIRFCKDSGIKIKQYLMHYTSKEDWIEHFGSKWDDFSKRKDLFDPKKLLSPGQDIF
Procedure: The method based on the coupled redox reaction of phenazine methosulfate and 3-(4,5-dimethylthiazol-2-yl)-2,5-diphenyltetrazolium bromide resulting in the formation of a formazan dye was used to test the ability of the synthesized compounds to inhibit AtCKX2. The assay was performed as described previously (Frébort et al., [2002]). Cell-free growth medium of Saccharomyces cerevisiae strain 23344c ura- harboring the plasmid pYES2- AtCKX2 was used directly as a source of AtCKX2 (Frébortová et al., [2007]).

SMILES: COCCNC(=O)Nc1cnns1 [ASES, 1-(2-methoxy-ethyl)-3-1,2,3-thiadiazol-5-yl-urea]
- delay of senescence of the individual leaves compared to the untreated control [1]: 5 to 6 days
- % of plants with dry and/or completely yellow at least one quarter of the first leaf ([1]; twenty days after planting, control 81%): 8%
- inhibition of AtCKX2 [2]: neither ASES nor any of the other synthesized substances inhibited AtCKX2
